Laboratory results published in US12083118B2, “Substituted 1,1′-biphenyl compounds, analogues thereof, and methods using same” (Arbutus Biopharma Corporation, priority 2018, dated 2024).

Biological target: PD-L1 (Homo sapiens (Human), UniProt Q9NZQ7)
Test: HTRF Assay (PD-1/PD-L1)
Type: binding
Settings: PD-L1 His protein 6 nM, PD-1 Fc protein 6 nM
Experimental: PD-L1 small molecule inhibitors were diluted by 3-fold starting from 20 μM and a final concentration of 0.001 μM and added to the well. PD-1 Fc protein was added at the final concentration of 6 nM. PD-L1 His protein, PD-L1 small molecule inhibitors, and PD1 Fc proteins were added to the well in this order, with each 5 μl volume, and were incubated for 15 minutes at room temperature. […] The plate was read using PerkinElmer Envision plate reader and data was analyzed by Prism 6 software. Results are illustrated in Table 1

PD-L1, sequence (Q9NZQ7 19-238): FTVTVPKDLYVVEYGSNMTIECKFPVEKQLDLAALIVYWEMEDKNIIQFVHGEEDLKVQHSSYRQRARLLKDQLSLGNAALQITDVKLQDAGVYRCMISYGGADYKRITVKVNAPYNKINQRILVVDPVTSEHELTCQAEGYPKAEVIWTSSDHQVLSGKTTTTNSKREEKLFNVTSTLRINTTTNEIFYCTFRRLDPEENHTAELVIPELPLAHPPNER

Compound | IC50
COc1cc(OCc2cccc(-c3cccc(COc4cc(OC)c(CN5CCCC[C@H]5C(=O)O)cc4Cl)c3C)c2C)c(Cl)cc1CN1CCCC[C@H]1C(=O)O [Example 29, (2S)-1-[[4-[[3-[3-[[4-[[(2S)-2-carboxy-1-piperidyl]methyl]-2-chloro-5-methoxy-phenoxy]methyl]-2-methyl-phenyl]-2-methyl-phenyl]methoxy]-5-chloro-2-methoxy-phenyl]methyl]piperidine-2-carboxylic acid] | 1.2 nM
Cc1c(COc2cc(OCc3cncc(C#N)c3)c(CN3CCCC[C@H]3C(=O)O)cc2Cl)cccc1-c1cccc(COc2cc(OCc3cncc(C#N)c3)c(CN3CCCC[C@H]3C(=O)O)cc2Cl)c1C [Example 27, (2S)-1-[[4-[[3-[3-[[4-[[(2S)-2-Carboxy-1-piperidyl]methyl]-2-chloro-5-[(5-cyano-3-pyridyl)methoxy]phenoxy]methyl]-2-methyl-phenyl]-2-methyl-phenyl]methoxy]-5-chloro-2-[(5-cyano-3-pyridyl)methoxy]phenyl]methyl] piperidine-2-carboxylic acid] | 1.3 nM
